Read-outs that look alike come from different tables or passages of the source.
Legend:
Assay in all cases: Post-emergence action against weeds, greenhouse pot test, visual scoring
Format in all cases: in vivo
[1] = system: Avena fatua (AVEFA); settings: read-out: % activity found; for inhibition at 30 g/ha / inhibition at 90 g/ha: AVEFA
Method: (§1) Seeds or rhizome pieces of mono- and dicotyledonous harmful and useful plants were placed in peat pots (diameter 4 cm) filled with sandy loam and then covered with soil. The pots were kept in a greenhouse under optimum conditions. In addition, harmful plants encountered in paddy rice cultivation were cultivated in pots with a water level 2 cm above the soil surface.
(§2) About three weeks after the start of the cultivation, the test plants were treated at the 2- to 3-leaf stage. The herbicides, formulated as powder or liquid concentrates, were, either alone or in the combinations according to the invention, sprayed in various dosages on to the green parts of the plants using an application rate of 600 l of water/ha (converted). For further cultivation of the plants, the pots were then again kept under optimum conditions in a greenhouse.
(§3) The visual scoring of the herbicidal effects was carried out in intervals up to 21 days after the treatment. Scoring was carried out in percent in comparison to the untreated control plants. 0%=no herbicidal activity, 100%=complete herbicidal activity=complete kill.
(§4) The percentages from the treatments with the herbicides alone (=individual application) and with the combinations according to the invention (=mixtures) were employed to calculate interactions using the method of Colby. When the observed efficacies of the mixtures exceed the formal sum of the values of the tests with individual applications, they also exceed the expected value according to Colby, which is calculated using the formula below (cf. S. R. Colby; in Weeds 15 (1967) pp. 20 to 22):
(§5) Here: • A, B=activity of components A and B in percent at a dosage of a and b g of ai/ha (=gramm of active substance per hectare), respectively. • E=expected value in % at a dosage of a+b g of ai/ha.

[2] = system: Setaria viridis (SETVI); settings: 504 h, read-out: % activity found
Method: as §1, §2, §3, §4, §5

[3] = system: Zea mays (ZEAMX); settings: read-out: % activity found; for inhibition at 30 g/ha / inhibition at 90 g/ha: ZEAMX
Method: as §1, §2, §3, §4, §5

[4] = system: Lolium multiflorum (LOLMU); settings: read-out: % activity found
Method: as §1, §2, §3, §4, §5

[5] = system: Triticum aestivum (TRZAS); settings: read-out: % activity found
Method: as §1, §2, §3, §4, §5

[6] = system: Alopecurus myosuroides (ALOMY); settings: 504 h, read-out: % activity found
Method: as §1, §2, §3, §4, §5

[7] = system: Matricaria inodora (MATIN); settings: Tripleurospermum inodorum, read-out: % activity found
Method: as §1, §2, §3, §4, §5

[8] = system: Amaranthus retroflexus (AMARE); settings: read-out: % activity found; for inhibition at 12 g/ha: A-1 12 g of ai/ha
Method: as §1, §2, §3, §4, §5

[9] = system: Fallopia (ex Polygonum) convolvulus (POLCO); settings: read-out: % activity found
Method: as §1, §2, §3, §4, §5

[10] = system: Abuthilon theophrasti (ABUTH); settings: Abutilon theophrasti, 240 h, read-out: % activity found
Method: as §1, §2, §3, §4, §5

[11] = system: Viola tricolor (VIOTR); settings: read-out: % activity found
Method: as §1, §2, §3, §4, §5

[12] = system: Oryza sativa (ORYSA); settings: read-out: % activity found; for inhibition at 90 g/ha: ORYSA, B3-3 90 g of ai/ha
Method: as §1, §2, §3, §4, §5

[13] = system: Pharbitis purpurea (PHBPU); settings: Ipomoea purpurea, read-out: % activity found; for inhibition at 4 g/ha / inhibition at 12 g/ha: PHBPU; for inhibition at 4 g/ha: A-1 4 g of ai/ha; for inhibition at 12 g/ha: A-1 12 g of ai/ha
Method: as §1, §2, §3, §4, §5

[14] = system: Cyperus esculentus (CYPES); settings: 504 h, read-out: % activity found
Method: as §1, §2, §3, §4, §5

[15] = 240 h, 10 DAT, B3-1 30 g of ai/ha
[16] = 240 h, 10 DAT, B3-1 90 g of ai/ha
[17] = 504 h, 21 DAT, B3-3 30 g of ai/ha
[18] = 504 h, 21 DAT, B3-3 90 g of ai/ha

Compound: CS(=O)(=O)c1ccc(C(=O)C2C(=O)CCCC2=O)c([N+](=O)[O-])c1 [B3-1, 2-[4-(methylsulfonyl)-2-nitrobenzoyl]-1,3-cyclohexanedione]
- inhibition at 30 g/ha [1, 15]: 0%
- inhibition at 90 g/ha [1, 16]: 0%
- inhibition at 30 g/ha ([1]; 504 h, 21 DAT, B3-1 30 g of ai/ha): 0%
- inhibition at 90 g/ha ([1]; 504 h, 21 DAT, B3-1 90 g of ai/ha): 0%
- inhibition at 30 g/ha ([2]; SETVI, 21 DAT, B3-1 30 g of ai/ha): 0%
- inhibition at 90 g/ha ([2]; SETVI, 21 DAT, B3-1 90 g of ai/ha): 20%
- inhibition at 30 g/ha [3, 15]: 0%
- inhibition at 90 g/ha [3, 16]: 20%
- inhibition at 30 g/ha ([4]; 240 h, LOLMU, 10 DAT, B3-1 30 g of ai/ha): 30%
- inhibition at 30 g/ha ([4]; 504 h, LOLMU, 21 DAT, B3-1 30 g of ai/ha): 0%
- inhibition at 90 g/ha ([5]; 504 h, TRZAS, 21 DAT, B3-1 90 g of ai/ha): 30%
- inhibition at 30 g/ha ([6]; ALOMY, 21 DAT, B3-1 30 g of ai/ha): 0%
- inhibition at 90 g/ha ([6]; ALOMY, 21 DAT, B3-1 90 g of ai/ha): 30%

Compound: CCSC(C)CC1CC(=O)C(/C(CC)=N/OC/C=C/Cl)=C(O)C1 (racemic) [B2-3, (E,E)-(±)-2-[1-[[(3-chloro-2-propenyl)oxy]imino]propyl]-5-[2-(ethylthio)propyl]-3-hydroxy-2-cyclohexen-1-one]
- inhibition at 60 g/ha ([7]; 240 h): 0%
- inhibition at 20 g/ha ([7]; 504 h): 0%
- inhibition at 60 g/ha ([7]; 504 h): 0%
- inhibition at 20 g/ha ([8]; 240 h): 0%
- inhibition at 60 g/ha ([8]; 240 h): 0%
- inhibition at 20 g/ha ([8]; 504 h): 0%
- inhibition at 60 g/ha ([8]; 504 h): 0%
- inhibition at 20 g/ha ([1]; 504 h): 50%
- inhibition at 20 g/ha ([9]; 240 h): 0%
- inhibition at 60 g/ha ([9]; 240 h): 0%
- inhibition at 20 g/ha ([9]; 504 h): 0%
- inhibition at 60 g/ha ([9]; 504 h): 0%
- inhibition at 20 g/ha [10]: 0%
- inhibition at 60 g/ha [10]: 0%
- inhibition at 60 g/ha ([3]; 240 h): 80%
- inhibition at 20 g/ha ([11]; 240 h): 0%
- inhibition at 60 g/ha ([11]; 240 h): 0%
- inhibition at 20 g/ha ([11]; 504 h): 0%
- inhibition at 60 g/ha ([11]; 504 h): 0%
- inhibition at 20 g/ha ([12]; 240 h): 90%
- inhibition at 20 g/ha ([12]; 504 h): 95%
- inhibition at 20 g/ha ([13]; 240 h): 0%
- inhibition at 60 g/ha ([13]; 240 h): 0%
- inhibition at 20 g/ha ([13]; 504 h): 0%
- inhibition at 60 g/ha ([13]; 504 h): 0%
- inhibition at 20 g/ha [14]: 0%
- inhibition at 60 g/ha [14]: 0%
- inhibition at 20 g/ha ([5]; 240 h): 40%

Compound: COc1nc(OC)nc(C(=O)c2cccc(F)c2N(C)S(=O)(=O)C(F)F)n1 [A-1]
- inhibition at 4 g/ha ([7]; 240 h, MATIN, 10 DAT, A-1 4 g of ai/ha): 60%
- inhibition at 12 g/ha ([8]; 240 h, AMARE, 10 DAT): 70%
- inhibition at 4 g/ha ([8]; 504 h, AMARE, 21 DAT, A-1 4 g of ai/ha): 70%
- inhibition at 12 g/ha ([8]; 504 h, AMARE, 21 DAT): 75%
- inhibition at 4 g/ha ([9]; 240 h, POLCO, 10 DAT, A-1 4 g of ai/ha): 70%
- inhibition at 12 g/ha ([9]; 240 h, POLCO, 10 DAT, A-1 12 g of ai/ha): 70%
- inhibition at 4 g/ha ([10]; ABUTH, 10 DAT, A-1 4 g of ai/ha): 70%
- inhibition at 12 g/ha ([10]; ABUTH, 10 DAT, A-1 12 g of ai/ha): 70%
- inhibition at 12 g/ha ([11]; 240 h, VIOTR, 10 DAT, A-1 12 g of ai/ha): 20%
- inhibition at 4 g/ha ([13]; 240 h, 10 DAT): 60%
- inhibition at 12 g/ha ([13]; 240 h, 10 DAT): 60%
- inhibition at 4 g/ha ([13]; 504 h, 21 DAT): 60%
- inhibition at 12 g/ha ([13]; 504 h, 21 DAT): 65%

Compound: CS(=O)(=O)c1ccc(C(=O)C2C(=O)CCCC2=O)c(Cl)c1 [B3-2, 2-[2-chloro-4-(methylsulfonyl)benzoyl]-1,3-cyclohexanedione]
- inhibition at 70 g/ha ([1]; 240 h): 0%
- inhibition at 70 g/ha ([1]; 504 h): 0%
- inhibition at 210 g/ha ([1]; 504 h): 0%
- inhibition at 70 g/ha [2]: 0%
- inhibition at 210 g/ha [2]: 20%
- inhibition at 70 g/ha ([3]; 240 h): 0%
- inhibition at 210 g/ha ([3]; 240 h): 0%
- inhibition at 70 g/ha ([3]; 504 h): 0%
- inhibition at 210 g/ha ([3]; 504 h): 0%
- inhibition at 70 g/ha ([4]; 504 h): 0%
- inhibition at 70 g/ha [6]: 0%
- inhibition at 210 g/ha [6]: 20%

Compound: CS(=O)(=O)c1ccc(C(=O)C2C(=O)CCCC2=O)c(Cl)c1COCC(F)(F)F [B3-3, 2-[2-chloro-4-(methylsulfonyl)-3-[(2,2,2-trifluoroethoxy)methyl]benzoyl]-1,3-cyclohexanedione]
- inhibition at 30 g/ha [1, 17]: 0%
- inhibition at 90 g/ha [1, 18]: 0%
- inhibition at 30 g/ha ([2]; SETVI, 21 DAT, B3-3 30 g of ai/ha): 50%
- inhibition at 30 g/ha ([3]; 240 h, 10 DAT, B3-3 30 g of ai/ha): 0%
- inhibition at 90 g/ha ([3]; 240 h, 10 DAT, B3-3 90 g of ai/ha): 0%
- inhibition at 30 g/ha [3, 17]: 0%
- inhibition at 90 g/ha [3, 18]: 0%
- inhibition at 30 g/ha ([4]; 504 h, LOLMU, 21 DAT, B3-3 30 g of ai/ha): 20%
- inhibition at 90 g/ha ([4]; 504 h, LOLMU, 21 DAT, B3-3 90 g of ai/ha): 50%
- inhibition at 90 g/ha ([12]; 240 h, 10 DAT): 40%
- inhibition at 90 g/ha ([12]; 504 h, 21 DAT): 30%
- inhibition at 30 g/ha ([6]; ALOMY, 21 DAT, B3-3 30 g of ai/ha): 40%
